From publication PMC3968128, “Broadly Reactive Human CD8 T Cells that Recognize an Epitope Conserved between VZV, HSV and EBV” (PLoS Pathogens, 2014) come the findings set out here.

The target of test [1] is T1, HLA A*02:01 class I molecules (Homo sapiens, UniProt P04439, D140Y/D185E/D98H/E176V/E277Q/G131W/G231S/I119V/I121R/I166T/I218V/L300P/L318F/N151K/N90K/P208A/P217A/Q86G/Q94H/R138H/R169H/T345S).
T1 construct: endogenous in cells; host or cells: JY (EBV-transformed homozygous B cell line)
The test is described as follows: MHC-peptide binding assay, inhibition of binding of radiolabeled standard peptide. The note with it: inhibition of binding of radiolabeled HBV core 18–27 analogue […]; purified MHC from JY cells; six concentrations, three or more independent assays; read-out: Measured affinity IC50. The text has this: Quantitative assays to measure the binding of peptides to HLA A*02:01 class I molecules are based on the inhibition of binding of a radiolabeled standard peptide (HBV core 18–27 analogue, […]). MHC molecules were purified by affinity chromatography from the EBV transformed homozygous cell line JY, and assays performed, as described previously. […] Under the conditions used, where [radiolabeled probe] < [MHC] and IC50 ≥ [MHC], the measured IC50 values are reasonable approximations of the true Kd values.

Test [2] has as its system PBMCs from HLA-A*0201+ volunteers. The experiment in a line: Ex vivo IFN-γ ELISpot assay. The following applies: individual peptides at 10 µg/ml; 20 h, 37°C. In kind it is cell-based, human. The text has this:
We recruited 21 HLA-A*0201 positive volunteers with a history of primary VZV infection, detectable VZV IgG but no previous VZV vaccination or clinical evidence of recent reactivation (Table 1). The median age was 63 years (range 25–77 years). Epitope predictions in the context of HLA-A*0201 were made using the Immune Epitope Database consensus prediction tool with the complete published VZV sequences (Table S1). The top 0.5% of 9- and 10-mers (367 peptides) were synthesized and peptide pools screened by IFN-γ ELISpot using PBMCs from each subject. In 15/21 subjects, the same peptide pool induced positive responses (Figure 1a). […] Tetramer+ cells were detected in 12/21 subjects with frequencies ranging from 0.01% to 1.8% of CD8 T cells (Figure 1d). ILI was thus identified as an immunodominant HLA-A*0201-restricted class I epitope.
Gamma interferon (IFN-γ) enzyme-linked immunospot (ELISpot) assays were performed using 2×10^5 PBMC stimulated with peptide pools (10 µg/ml/peptide). Peptide pools yielding positive responses were deconvoluted, by testing individual peptides at 10 µg/ml. After 20 h of incubation at 37°C, plates were developed, and responses were calculated. Positive wells contained ≥20 spot-forming units (SFU)/10^6 cells and a P value of ≤0.05 using a Student's t test in at least 2 experiments.

Broadly, the IC50 is the midpoint of a concentration-inhibition curve.

Ends that are not written are not given here.

Consider ILIEGIFFV, for which the concentration for half-maximal inhibition (IC50) in test [1] worked out at 0.03 nM. On to ILIEGIFFA, for which the IC50 in test [1] was determined as 0.15 nM.

As for ILIEGVFFA, the IC50 in test [1] turned out to be 0.16 nM. As for “MILIEGIFFV [10-mer candidate peptide from ribonucleotide reductase subunit 2 (RNR2) of VZV]”, in test [2], the “IFN-γ production (individual peptides)” value is given as “strongly induced IFN-γ production”. Regarding LLIEGIFFI, the IC50 in test [1] came to 0.12 nM.
